Measurements: ChEMBL document CHEMBL1811877, “Bioactive neolignans and lignans from the bark of Machilus robusta” (J Nat Prod, 2011)
Calls of active or inactive are those of the source. No cut-off for these calls is given here.

What was measured:
WB-F344 = test: (§1) Hepatoprotective activity in rat WB-F344 cells assessed as inhibition of D-galactosamine-induced cell damage at 10 uM treated 1 hr before D-galactosamine challenge after 24 hrs by MTT assay; type: functional
PC-12 [1] = test: Cytoprotection against rotenone-induced toxicity in rat PC12 cells assessed as increase in cell viability at 10 uM after 48 hrs by MTT assay (reference value: 73.0 +/- 9.6%); type: functional
[2] = tested on: Human immunodeficiency virus 1; test: Antiviral activity against Human immunodeficiency virus 1 assessed as inhibition of viral replication at 0.001 uM; type: functional
[3] = tested on: Human immunodeficiency virus 1; test: Antiviral activity against Human immunodeficiency virus 1 assessed as inhibition of viral replication; type: functional, organism-based
PC-12 [4] = test: Cytoprotection against serum deprivation-induced cellular damage of rat PC12 cells assessed as increase in cell viability at 10 uM after 48 hrs by MTT assay (reference value: 66.6 +/- 9.2%); type: functional
[5] = as §1; type: functional

IC50 [3] | SMILES | inhibition (WB-F344) | Activity (PC-12 [1]) | inhibition [2] | inhibition [3] | Activity (PC-12 [4]) | inhibition at 10 µM [5] | inhibition at 0.001 µM [2]
 | COc1cc2c(cc1O)[C@H](c1cc(OC)c(O)c(OC)c1)[C@@H](C)[C@@H](COC(C)=O)C2 | inactive | inactive | inactive | inactive | inactive |  | 
 | COc1cc(C[C@H](C)[C@H](C)Cc2cc(O)c(O)c(OC)c2)ccc1O |  | 96.2% | inactive | inactive | inactive | 68% | 
 | COc1cc2c(cc1O)C(=O)[C@H](C)[C@@H](C)C2 | inactive | inactive | inactive | inactive | inactive |  | 
 | O=C1Nc2ccc(Cl)cc2[C@@](C#CC2CC2)(C(F)(F)F)O1 [EFAVIRENZ] |  |  |  |  |  |  | 42.5%
 | COc1cc([C@@H]2OC[C@H](Cc3cc(OC)c(O)c(OC)c3)[C@H]2C)ccc1O | inactive | inactive | inactive | inactive | inactive |  | 
 | COc1cc2c(cc1O)[C@H](c1cc(O)c(O)c(OC)c1)[C@@H](C)[C@@H](C)C2 |  | inactive | inactive | inactive | inactive | 77.2% | 
 | COc1cc2c(cc1O)[C@H](c1cc(OC)c(OC)c(OC)c1)[C@@H](C)[C@@H](C)C2 | inactive | inactive | inactive | inactive | inactive |  | 
 | COc1cc([C@H](O)[C@@H](C)Oc2ccc([C@H]3c4cc(O)c(OC)cc4C[C@@H](C)[C@@H]3C)cc2OC)ccc1O | inactive | inactive | inactive | inactive | inactive |  | 
2520 nM | COc1cc(C[C@H](C)[C@H](C)Cc2cc(OC)c(O[C@H](C)[C@@H](O)c3ccc(O)c(OC)c3)c(OC)c2)ccc1O | inactive | inactive | inactive |  | inactive |  | 
 | COc1cc([C@H]2c3c(cc(OC)c(O)c3OC)C[C@@H](CO)[C@@H]2CO)cc(OC)c1O |  |  |  |  | 79.4% |  | 
 | COc1cc([C@@H]2OC[C@H]3[C@@H]2CO[C@H]3c2ccc(O)c(OC)c2)ccc1O [(-)-PINORESINOL] |  |  |  |  | 73.2% |  | 
 | COc1cc(C[C@H](C)[C@H](C)Cc2ccc(O)cc2)ccc1O | inactive | inactive | inactive | inactive | inactive |  | 
 | COc1cc2c(cc1O)C(=O)[C@H](C)[C@H](C)C2 | inactive | inactive | inactive | inactive | inactive |  | 
 | COC(=O)c1cc(OC)c2c(c1-c1c(CO)cc(OC)c3c1OCO3)OCO2 [BICYCLOL] |  |  |  |  |  | 67% | 
 | COc1cc2c(cc1O)[C@H](c1ccc(O)c(O)c1)[C@@H](C)[C@@H](C)C2 | inactive | inactive | inactive | inactive | inactive |  | 
 | COc1cc(C[C@H](C)[C@H](C)Cc2cc(OC)c(OC)c(OC)c2)ccc1O | inactive | inactive | inactive | inactive | inactive |  | 
 | COc1cc(C[C@H](C)[C@H](C)Cc2cc(OC)c(O)c(OC)c2)ccc1O | inactive | inactive | inactive | inactive | inactive |  | 
 | COc1cc(C[C@H](COC(C)=O)[C@H](C)Cc2cc(OC)c(O)c(OC)c2)ccc1O | inactive | inactive | inactive | inactive | inactive |  | 
 | COc1cc(C[C@H](C)[C@H](COC(C)=O)Cc2cc(OC)c(O)c(OC)c2)ccc1O | inactive | inactive | inactive | inactive | inactive |  | 
 | COc1cc2c(cc1O)[C@H](c1cc(OC)c(O)c(OC)c1)[C@@H](C)[C@@H](C)C2 |  | inactive | inactive | inactive | inactive | 64% | 
2010 nM | COc1cc(C[C@H](C)[C@H](C)Cc2cc(OC)c(O[C@@H](C)[C@@H](O)c3ccc(O)c(OC)c3)c(OC)c2)ccc1O | inactive | inactive | inactive |  | inactive |  | 
 | COc1cc([C@H]2O[C@@H](c3cc(OC)c(O)c(OC)c3)[C@H](C)[C@@H]2C)ccc1O | inactive | inactive | inactive | inactive | inactive |  | 
